Laboratory results from the supplement of paper PMC11451515.

Tested on: SEM cells
Test: cell viability relative to DMSO control; higher = less cytotoxic
Conditions: 48 h
Outline: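 Viability values are per-plate percentages of DMSO wells, with background from cell-free wells. Library compounds in DMSO were pin-dosed, in an 11-point threefold series from 47 μM to 0.79 nM, onto NOMO1 or SEM (500 cells/well) or P12-Ichikawa (1000 cells/well) leukemia cells in 1536-well plates (5 μl). Those cells had been adapted for at least four passages in each medium, and CellTiter-Glo One luminescence was read after 48 h at 37°C.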

[1] = HPLM + 10% dialyzed FBS, 0.000781 µM
[2] = HPLM + 10% dialyzed FBS, 0.00234 µM
[3] = HPLM + 10% dialyzed FBS, 0.00702 µM
[4] = HPLM + 10% dialyzed FBS, 0.0211 µM
[5] = HPLM + 10% dialyzed FBS, 0.0632 µM
[6] = HPLM + 10% dialyzed FBS, 0.19 µM
[7] = HPLM + 10% dialyzed FBS, 0.569 µM
[8] = HPLM + 10% dialyzed FBS, 1.71 µM
[9] = HPLM + 10% dialyzed FBS, 5.12 µM
[10] = HPLM + 10% dialyzed FBS, 15.4 µM
[11] = HPLM + 10% dialyzed FBS, 46.1 µM
[12] = RPMI 5 mM glucose + 10% FBS, 0.000781 µM
[13] = RPMI 5 mM glucose + 10% FBS, 0.00234 µM
[14] = RPMI 5 mM glucose + 10% FBS, 0.00702 µM
[15] = RPMI 5 mM glucose + 10% FBS, 0.0211 µM
[16] = RPMI 5 mM glucose + 10% FBS, 0.0632 µM
[17] = RPMI 5 mM glucose + 10% FBS, 0.19 µM
[18] = RPMI 5 mM glucose + 10% FBS, 0.569 µM
[19] = RPMI 5 mM glucose + 10% FBS, 1.71 µM
[20] = RPMI 5 mM glucose + 10% FBS, 5.12 µM
[21] = RPMI 5 mM glucose + 10% FBS, 15.4 µM
[22] = RPMI 5 mM glucose + 10% FBS, 46.1 µM
[23] = RPMI 5 mM glucose + 10% dialyzed FBS, 0.000781 µM
[24] = RPMI 5 mM glucose + 10% dialyzed FBS, 0.00234 µM
[25] = RPMI 5 mM glucose + 10% dialyzed FBS, 0.00702 µM
[26] = RPMI 5 mM glucose + 10% dialyzed FBS, 0.0211 µM
[27] = RPMI 5 mM glucose + 10% dialyzed FBS, 0.0632 µM
[28] = RPMI 5 mM glucose + 10% dialyzed FBS, 0.19 µM
[29] = RPMI 5 mM glucose + 10% dialyzed FBS, 0.569 µM
[30] = RPMI 5 mM glucose + 10% dialyzed FBS, 1.71 µM
[31] = RPMI 5 mM glucose + 10% dialyzed FBS, 5.12 µM
[32] = RPMI 5 mM glucose + 10% dialyzed FBS, 15.4 µM
[33] = RPMI 5 mM glucose + 10% dialyzed FBS, 46.1 µM

Row | SMILES | cell viability [1] | cell viability [2] | cell viability [3] | cell viability [4] | cell viability [5] | cell viability [6] | cell viability [7] | cell viability [8] | cell viability [9] | cell viability [10] | cell viability [11] | cell viability [12] | cell viability [13] | cell viability [14] | cell viability [15] | cell viability [16] | cell viability [17] | cell viability [18] | cell viability [19] | cell viability [20] | cell viability [21] | cell viability [22] | cell viability [23] | cell viability [24] | cell viability [25] | cell viability [26] | cell viability [27] | cell viability [28] | cell viability [29] | cell viability [30] | cell viability [31] | cell viability [32] | cell viability [33]
1 | CC(C)(C)OC(=O)N[C@H]1CCCCC/C=C\[C@@H]2C[C@@]2(C(=O)N[S+](=O)([O-])C2CC2)NC(=O)[C@@H]2C[C@@H](OC(=O)N3Cc4cccc(F)c4C3)CN2C1=O | 71.4% | 83.9% | 83.5% | 75.7% | 97.3% | 89% | 92.1% | 79.8% | 84% | 86.6% | 80.2% | 96.1% | 99.7% | 84.5% | 73.4% | 102% | 88.9% | 101% | 103% | 93.4% | 90.2% | 85.4% | 85.2% | 91.9% | 93.4% | 105% | 94.9% | 98.5% | 121% | 115% | 93% | 91.6% | 81.3%
2 | CCC[S+]([O-])c1ccc2[nH]c(NC(=O)OC)nc2c1 (stereo not drawn) | 78.9% | 96.2% | 111% | 86.7% | 100% | 105% | 83.1% | 94.9% | 94.6% | 38.2% | 33.4% | 74.9% | 99.4% | 100% | 99.3% | 114% | 93.9% | 82% | 84.9% | 91.8% | 24.4% | 32.2% | 72.7% | 99.8% | 95.9% | 109% | 101% | 113% | 83.1% | 105% | 98.6% | 23.2% | 17.3%
3 | ClC1=CC=C(C=C1)C(C#N)C2=C(Cl)C=C(C=C2Cl)N3\N=C/C(=O)NC3=O (stereo not drawn) | 87.4% | 43.9% | 104% | 83.7% | 91.8% | 94.8% | 91.3% | 93.9% | 86.4% | 91.6% | 107% | 90.6% | 47.9% | 96.6% | 92.5% | 87.1% | 98.4% | 90.1% | 90.2% | 96.3% | 82.3% | 76.7% | 93.1% | 42.5% | 99.2% | 100% | 106% | 119% | 104% | 94.6% | 109% | 95.8% | 89.7%
4 | C[C@]12CC[C@H]3[C@@H](CC[C@H]4NC(=O)\C=C/[C@]34C)[C@@H]1CC[C@@H]2C(=O)NC5=CC(=CC=C5C(F)(F)F)C(F)(F)F | 116% | 122% | 118% | 117% | 118% | 61.3% | 119% | 113% | 81.1% | 111% | 99.3% | 123% | 120% | 138% | 132% | 120% | 115% | 124% | 129% | 56% | 128% | 126% | 114% | 141% | 120% | 126% | 121% | 100% | 126% | 121% | 37.1% | 117% | 105%
5 | O=C(O)Cn1nnc(-c2cc(N3CCC(Oc4cc(F)ccc4Br)CC3)no2)n1 | 73.8% | 82.5% | 92.6% | 75.8% | 95.6% | 101% | 104% | 102% | 86.3% | 97.2% | 62.2% | 102% | 75.3% | 101% | 94.2% | 98% | 100% | 96.9% | 120% | 90.9% | 103% | 85.4% | 80.1% | 88.9% | 95.6% | 106% | 93.6% | 102% | 116% | 106% | 94% | 102% | 103%
6 | S=C(NCc1ccc2c(c1)OCO2)N1CCN(c2ncnc3c2oc2ccccc23)CC1 | 116% | 120% | 123% | 100% | 129% | 23.2% | 124% | 124% | 93.7% | 79.4% | 16.7% |  |  |  |  |  |  |  |  |  |  |  | 104% | 103% | 121% | 127% | 134% | 126% | 134% | 135% | 62.9% | 64.5% | 17.5%
7 | C[C@H](NC(=O)c1sccc1OCc1ccc(Cl)cc1)c1ccccc1 | 98.8% | 94.4% | 82.9% | 88.2% | 94.8% | 83.4% | 91.1% | 92.5% | 69.5% | 80.1% | 51% | 96.9% | 90.9% | 92.5% | 106% | 112% | 95.6% | 85.1% | 112% | 73.3% | 115% | 20.4% | 107% | 97.3% | 94.7% | 94.1% | 101% | 101% | 97.9% | 101% | 70.1% | 99.6% | 59.3%
8 | CCOC(=O)[C@@H](N)Cc1ccc(-c2cc(O[C@H](c3ccc(Cl)cc3-n3ccc(C)n3)C(F)(F)F)nc(N)n2)cc1.O=C(O)CNC(=O)c1ccccc1 | 100% | 129% | 93.3% | 133% | 127% | 107% | 126% | 125% | 115% | 110% | 45.1% | 96.4% | 112% | 82.2% | 110% | 114% | 103% | 98.6% | 113% | 97.1% | 115% | 17.1% | 106% | 132% | 111% | 118% | 102% | 119% | 120% | 111% | 109% | 117% | 24%
9 | C[C@@H]1COCCN1c1cc(C2([S@+](C)(=N)[O-])CC2)nc(-c2ccnc3[nH]ccc23)n1 | 90.4% | 100% | 98.5% | 77.8% | 102% | 93.4% | 95.3% | 40.6% | 21.5% | 21.5% | 14% |  |  |  |  |  |  |  |  |  |  |  | 81.8% | 96% | 114% | 74.4% | 130% | 102% | 66.3% | 42.4% | 24.8% | 20.6% | 10.7%
10 | COc1cc(F)c(F)c(Nc2ccc(I)cc2F)c1N[S+](=O)([O-])C1(C[C@H](O)CO)CC1 | 102% | 108% | 122% | 106% | 111% | 103% | 105% | 89.9% | 117% | 104% | 60.2% | 111% | 109% | 121% | 112% | 119% | 126% | 97.9% | 120% | 109% | 83.6% | 15.3% | 110% | 105% | 115% | 115% | 112% | 117% | 104% | 102% | 106% | 103% | 50.4%
